ChEMBL document CHEMBL1138058, “Discovery and evaluation of N-cyclopropyl- 2,4-difluoro-5-((2-(pyridin-2-ylamino)thiazol-5-ylmethyl)amino)benzamide (BMS-605541), a selective and orally efficacious inhibitor of vascular endothelial growth factor receptor-2” (J Med Chem, 2006)

What was measured:
L2987 [1] = assay: Antiproliferative activity against L2987 cells; conditions: Homo sapiens
HUVEC = assay: Antiproliferative activity against VEGF-stimulated HUVEC; conditions: Homo sapiens
[2] = biological target: Protein kinase C delta type (Homo sapiens, UniProt Q05655); assay: Inhibition of PKCdelta
[3] = biological target: Protein kinase C zeta type (Homo sapiens, UniProt Q05513); assay: Inhibition of PKCzeta
[4] = biological target: Receptor tyrosine-protein kinase erbB-2 (Homo sapiens, UniProt P04626); assay: Inhibition of Her2
[5] = biological target: Tyrosine-protein kinase ITK/TSK (Homo sapiens, UniProt Q08881); assay: Inhibition of Itk
[6] = biological target: Tyrosine-protein kinase SYK (Homo sapiens, UniProt P43405); assay: Inhibition of Syk
[7] = biological target: Tyrosine-protein kinase JAK3 (Homo sapiens, UniProt P52333); assay: Inhibition of JAK3
[8] = biological target: MAP kinase-activated protein kinase 2 (Homo sapiens, UniProt P49137); assay: Inhibition of MAPKAPK2
[9] = Cmax in Balb/C mouse at 90 mg/kg, po; type: ADME, organism-based; parameters: dose 90 mg/kg, route oral; conditions: in vivo
[10] = Tmax in Balb/C mouse at 90 mg/kg, po; type: ADME, organism-based; parameters: dose 90 mg/kg, route oral; conditions: in vivo
Mus musculus = assay: AUC (0-24h) in Balb/C mouse at 90 mg/kg, po; type: ADME, organism-based, Plasma; parameters: time < 24 hr, dose 90 mg/kg, route oral; conditions: in vivo
[11] = Half life in Balb/C mouse at 90 mg/kg, po; type: ADME, organism-based; parameters: dose 90 mg/kg, route oral; conditions: in vivo
[12] = Mean residence time in Balb/C mouse at 90 mg/kg, po; type: ADME, organism-based; parameters: dose 90 mg/kg, route oral; conditions: in vivo
[13] = Clearance in Balb/C mouse at 10 mg/kg, iv; type: ADME, organism-based; parameters: dose 10 mg/kg, route intravenous; conditions: in vivo
[14] = Volume of distribution in Balb/C mouse at 10 mg/kg, iv; type: ADME, organism-based; parameters: dose 10 mg/kg, route intravenous; conditions: in vivo, read-out: Vss
[15] = Bioavailability in Balb/C mouse at 90 mg/kg, po; type: ADME, organism-based; conditions: in vivo
[16] = Cmax in Sprague-Dawley rat at 50 mg/kg, po; type: ADME, organism-based; parameters: dose 50 mg/kg, route oral; conditions: in vivo
[17] = Tmax in Sprague-Dawley rat at 50 mg/kg, po; type: ADME, organism-based; parameters: dose 50 mg/kg, route oral; conditions: in vivo
Rattus norvegicus = assay: AUC in Sprague-Dawley rat at 50 mg/kg, po; type: ADME, organism-based, Plasma; parameters: dose 50 mg/kg, route oral; conditions: in vivo
[18] = Half life in Sprague-Dawley rat at 50 mg/kg, po; type: ADME, organism-based; parameters: dose 50 mg/kg, route oral; conditions: in vivo
[19] = Mean residence time in Sprague-Dawley rat at 50 mg/kg, po; type: ADME, organism-based; parameters: dose 50 mg/kg, route oral; conditions: in vivo
[20] = Clearance in Sprague-Dawley rat at 10 mg/kg, iv; type: ADME, organism-based; parameters: dose 10 mg/kg, route intravenous; conditions: in vivo
[21] = Volume of distribution in Sprague-Dawley rat at 10 mg/kg, iv; type: ADME, organism-based; parameters: dose 10 mg/kg, route intravenous; conditions: in vivo, read-out: Vss
[22] = Bioavailability in Sprague-Dawley rat at 50 mg/kg, po; type: ADME, organism-based; conditions: in vivo
[23] = Cmax in cynomolgus monkey at 5 mg/kg, po; type: ADME, organism-based, Macaca fascicularis; parameters: dose 5 mg/kg, route oral; conditions: in vivo
[24] = Tmax in cynomolgus monkey at 5 mg/kg, po; type: ADME, organism-based, Macaca fascicularis; parameters: dose 5 mg/kg, route oral; conditions: in vivo
Cynomolgus monkey [25] = assay: AUC in cynomolgus monkey at 5 mg/kg, po; type: ADME, organism-based, Macaca fascicularis, Plasma; parameters: dose 5 mg/kg, route oral; conditions: in vivo
[26] = biological target: Cyclin-dependent kinase 2 (Homo sapiens, UniProt P24941); assay: Inhibition of CDK2
[27] = biological target: Vascular endothelial growth factor receptor 1 (Homo sapiens, UniProt P17948); assay: Inhibition of VEGFR1
[28] = biological target: Platelet-derived growth factor receptor beta (Homo sapiens, UniProt P09619); assay: Inhibition of PDGFR beta
[29] = biological target: Mast/stem cell growth factor receptor Kit (Homo sapiens, UniProt P10721); assay: Inhibition of c-kit
[30] = biological target: Fibroblast growth factor receptor 1 (Homo sapiens, UniProt P11362); assay: Inhibition of FGFR1
[31] = biological target: Glycogen synthase kinase-3 (Homo sapiens, UniProt P49840+P49841); assay: Inhibition of GSK3; type: protein assay
[32] = biological target: Dual specificity mitogen-activated protein kinase kinase 1 (Homo sapiens, UniProt Q02750); assay: Inhibition of MEK
[33] = biological target: Serine/threonine-protein kinase AKT (Homo sapiens, UniProt P31751+Q9Y243+P31749); assay: Inhibition of AKT; type: protein assay
MAP kinase p38 = MAP kinase p38 (Homo sapiens, UniProt O15264+Q15759+Q16539+P53778); assay: Inhibition of p38; type: protein assay
[34] = biological target: Proto-oncogene tyrosine-protein kinase Src (Homo sapiens, UniProt P12931); assay: Inhibition of Src
[35] = biological target: Inhibitor of NF-kappa-B kinase (IKK) (Homo sapiens, UniProt O14920+O15111+Q9Y6K9); assay: Inhibition of IKK; type: protein-complex assay
SRSF protein kinase 1 = SRSF protein kinase 1 (Homo sapiens, UniProt Q96SB4); assay: Inhibition of SRPK1
[36] = biological target: Insulin-like growth factor 1 receptor (Homo sapiens, UniProt P08069); assay: Inhibition of IGF1R
[37] = biological target: Protein kinase C alpha type (Homo sapiens, UniProt P17252); assay: Inhibition of PKCalpha
[38] = biological target: Protein kinase C eta type (Homo sapiens, UniProt P24723); assay: Inhibition of PKCeta
HCT-116 [39] = assay: Inhibition of tumor growth in Athymic mouse xenografted with HCT116 at 25 mg/kg after 14 days; type: functional, Homo sapiens; conditions: HCT-116, 336 h, read-out: TGI
HCT-116 [40] = assay: Inhibition of tumor growth in Athymic mouse xenografted with HCT116 at 50 mg/kg after 14 days; type: functional, Homo sapiens; conditions: HCT-116, 336 h, read-out: TGI
[41] = biological target: Voltage-gated inwardly rectifying potassium channel KCNH2 (Homo sapiens, UniProt Q12809); assay: Inhibition of human ERG expressed in HEK293 cells; type: cell-based
[42] = Half life in cynomolgus monkey at 5 mg/kg, po; type: ADME, organism-based, Macaca fascicularis; parameters: dose 5 mg/kg, route oral; conditions: in vivo
[43] = Mean residence time in cynomolgus monkey at 5 mg/kg, po; type: ADME, organism-based, Macaca fascicularis; parameters: dose 5 mg/kg, route oral; conditions: in vivo
[44] = Bioavailability in cynomolgus monkey at 5 mg/kg, po; type: ADME, organism-based, Macaca fascicularis; conditions: in vivo
L2987 [45] = assay: Inhibition of tumor growth in Athymic mouse xenografted with L2987 at 60 mg/kg after 14 days; type: functional, Homo sapiens; conditions: L2987, 336 h, read-out: TGI
L2987 [46] = assay: Inhibition of tumor growth in Athymic mouse xenografted with L2987 at 90 mg/kg after 14 days; type: functional, Homo sapiens; conditions: L2987, 336 h, read-out: TGI
L2987 [47] = assay: Inhibition of tumor growth in Athymic mouse xenografted with L2987 at 180 mg/kg after 14 days; type: functional, Homo sapiens; conditions: L2987, 336 h, read-out: TGI
L2987 [48] = assay: Inhibition of tumor growth in Athymic mouse xenografted with L2987 at 25 mg/kg after 14 days; type: functional, Homo sapiens; conditions: L2987, 336 h, read-out: TGI
L2987 [49] = assay: Inhibition of tumor growth in Athymic mouse xenografted with L2987 at 50 mg/kg after 14 days; type: functional, Homo sapiens; conditions: L2987, 336 h, read-out: TGI
HCT-116 [50] = assay: Inhibition of tumor growth in Athymic mouse xenografted with HCT116 at 12.5 mg/kg after 14 days; type: functional, Homo sapiens; conditions: HCT-116, 336 h, read-out: TGI
[51] = biological target: Vascular endothelial growth factor receptor 2 (Homo sapiens, UniProt P35968)
[52] = biological target: Vascular endothelial growth factor receptor 2 (Mus musculus) (UniProt P35918); assay: Inhibition of FLK1
[53] = Clearance in cynomolgus monkey at 1 mg/kg, iv; conditions: in vivo
Cynomolgus monkey [54] = assay: Volume of distribution in cynomolgus monkey at 1 mg/kg, iv; conditions: in vivo

Vascular endothelial growth factor receptor 2, sequence (P35968 whole entry): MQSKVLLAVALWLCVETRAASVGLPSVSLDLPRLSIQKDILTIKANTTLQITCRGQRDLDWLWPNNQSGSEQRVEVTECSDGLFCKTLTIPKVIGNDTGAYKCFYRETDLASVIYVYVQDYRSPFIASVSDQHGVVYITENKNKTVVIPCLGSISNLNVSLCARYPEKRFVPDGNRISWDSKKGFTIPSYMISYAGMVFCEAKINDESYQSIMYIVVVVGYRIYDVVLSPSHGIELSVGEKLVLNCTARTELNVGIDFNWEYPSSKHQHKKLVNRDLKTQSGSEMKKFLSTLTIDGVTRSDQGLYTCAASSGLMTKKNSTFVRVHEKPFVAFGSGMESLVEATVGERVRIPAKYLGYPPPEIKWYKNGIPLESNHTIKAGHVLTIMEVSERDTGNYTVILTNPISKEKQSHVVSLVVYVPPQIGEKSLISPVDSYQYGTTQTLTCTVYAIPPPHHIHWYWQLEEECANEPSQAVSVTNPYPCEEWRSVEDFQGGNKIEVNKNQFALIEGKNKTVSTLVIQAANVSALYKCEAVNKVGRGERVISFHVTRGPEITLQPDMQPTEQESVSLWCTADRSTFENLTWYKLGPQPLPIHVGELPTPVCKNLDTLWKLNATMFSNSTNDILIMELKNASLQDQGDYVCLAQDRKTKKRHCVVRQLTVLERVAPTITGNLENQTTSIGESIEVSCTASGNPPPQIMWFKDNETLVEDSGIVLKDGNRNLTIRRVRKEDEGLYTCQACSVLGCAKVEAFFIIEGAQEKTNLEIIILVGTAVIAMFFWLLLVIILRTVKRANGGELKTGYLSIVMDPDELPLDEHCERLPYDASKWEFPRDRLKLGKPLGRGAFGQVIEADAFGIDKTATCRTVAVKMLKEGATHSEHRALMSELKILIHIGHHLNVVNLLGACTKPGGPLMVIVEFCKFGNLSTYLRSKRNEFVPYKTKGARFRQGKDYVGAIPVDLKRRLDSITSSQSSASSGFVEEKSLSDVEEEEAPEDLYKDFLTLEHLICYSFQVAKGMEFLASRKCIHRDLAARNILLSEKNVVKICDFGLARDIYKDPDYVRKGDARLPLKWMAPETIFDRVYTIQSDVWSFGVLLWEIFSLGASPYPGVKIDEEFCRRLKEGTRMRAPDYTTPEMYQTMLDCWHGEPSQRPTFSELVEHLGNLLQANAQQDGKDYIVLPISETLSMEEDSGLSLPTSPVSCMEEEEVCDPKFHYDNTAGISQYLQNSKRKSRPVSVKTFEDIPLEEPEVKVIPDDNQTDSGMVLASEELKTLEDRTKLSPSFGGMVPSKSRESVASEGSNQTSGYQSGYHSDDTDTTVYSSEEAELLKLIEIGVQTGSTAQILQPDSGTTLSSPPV
Fibroblast growth factor receptor 1, sequence (P11362 whole entry): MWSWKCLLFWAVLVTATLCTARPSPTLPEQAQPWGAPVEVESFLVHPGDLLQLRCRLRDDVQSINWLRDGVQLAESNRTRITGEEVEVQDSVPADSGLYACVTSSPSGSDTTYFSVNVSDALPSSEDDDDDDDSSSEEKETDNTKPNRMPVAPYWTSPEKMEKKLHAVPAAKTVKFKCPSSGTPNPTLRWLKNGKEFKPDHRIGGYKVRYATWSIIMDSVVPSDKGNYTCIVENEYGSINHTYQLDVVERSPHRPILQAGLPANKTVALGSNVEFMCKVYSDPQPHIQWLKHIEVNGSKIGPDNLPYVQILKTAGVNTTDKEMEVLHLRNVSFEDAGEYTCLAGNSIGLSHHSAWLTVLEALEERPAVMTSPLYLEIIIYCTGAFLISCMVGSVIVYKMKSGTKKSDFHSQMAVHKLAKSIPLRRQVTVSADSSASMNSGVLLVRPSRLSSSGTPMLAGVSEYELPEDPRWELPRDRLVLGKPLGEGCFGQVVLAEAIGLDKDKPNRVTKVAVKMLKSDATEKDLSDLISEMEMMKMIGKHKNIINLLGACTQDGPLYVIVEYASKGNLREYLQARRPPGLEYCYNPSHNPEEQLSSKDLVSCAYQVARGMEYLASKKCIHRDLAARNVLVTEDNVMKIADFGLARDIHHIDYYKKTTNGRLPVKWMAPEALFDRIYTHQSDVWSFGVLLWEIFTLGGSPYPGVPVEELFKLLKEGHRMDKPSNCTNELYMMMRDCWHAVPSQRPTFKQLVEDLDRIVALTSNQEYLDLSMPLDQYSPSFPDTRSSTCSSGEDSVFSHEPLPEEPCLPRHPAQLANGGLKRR
Insulin-like growth factor 1 receptor, sequence (P08069 31-736 limits assumed): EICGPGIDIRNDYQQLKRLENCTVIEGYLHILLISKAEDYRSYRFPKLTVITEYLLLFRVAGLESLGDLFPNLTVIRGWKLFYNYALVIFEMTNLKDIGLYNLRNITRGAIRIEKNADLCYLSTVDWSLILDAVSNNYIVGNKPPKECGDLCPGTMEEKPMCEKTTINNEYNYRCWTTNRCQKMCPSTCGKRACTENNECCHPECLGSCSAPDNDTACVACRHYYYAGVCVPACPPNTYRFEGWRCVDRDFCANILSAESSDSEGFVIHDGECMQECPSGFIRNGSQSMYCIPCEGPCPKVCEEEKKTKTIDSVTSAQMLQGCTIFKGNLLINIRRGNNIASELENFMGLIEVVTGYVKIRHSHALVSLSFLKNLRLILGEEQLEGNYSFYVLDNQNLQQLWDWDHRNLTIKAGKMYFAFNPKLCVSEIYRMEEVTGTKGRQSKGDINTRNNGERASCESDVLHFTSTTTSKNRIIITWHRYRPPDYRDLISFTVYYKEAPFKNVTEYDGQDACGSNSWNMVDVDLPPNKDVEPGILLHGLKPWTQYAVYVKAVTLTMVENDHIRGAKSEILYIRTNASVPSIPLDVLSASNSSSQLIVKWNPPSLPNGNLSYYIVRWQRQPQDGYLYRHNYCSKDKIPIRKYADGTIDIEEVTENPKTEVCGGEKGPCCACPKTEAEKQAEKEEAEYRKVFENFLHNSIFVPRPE
Insulin-like growth factor 1 receptor, sequence (P08069 741-1367 limits assumed): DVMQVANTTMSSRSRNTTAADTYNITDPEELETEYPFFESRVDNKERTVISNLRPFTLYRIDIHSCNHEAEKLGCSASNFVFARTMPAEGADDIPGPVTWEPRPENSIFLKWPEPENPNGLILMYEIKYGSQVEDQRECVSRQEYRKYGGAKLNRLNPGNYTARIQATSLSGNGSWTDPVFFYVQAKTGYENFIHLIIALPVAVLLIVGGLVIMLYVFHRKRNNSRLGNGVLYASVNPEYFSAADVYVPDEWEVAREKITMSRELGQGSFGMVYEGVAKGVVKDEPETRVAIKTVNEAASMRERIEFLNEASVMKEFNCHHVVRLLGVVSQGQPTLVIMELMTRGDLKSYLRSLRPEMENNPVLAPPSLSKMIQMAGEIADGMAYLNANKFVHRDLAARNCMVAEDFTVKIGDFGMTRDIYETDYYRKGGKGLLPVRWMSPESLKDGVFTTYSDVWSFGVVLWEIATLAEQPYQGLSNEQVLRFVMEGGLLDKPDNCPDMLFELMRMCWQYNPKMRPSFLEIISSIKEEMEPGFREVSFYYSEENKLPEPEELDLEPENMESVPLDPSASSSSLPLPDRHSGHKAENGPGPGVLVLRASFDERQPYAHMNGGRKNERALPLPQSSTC
Platelet-derived growth factor receptor beta, sequence (P09619 whole entry): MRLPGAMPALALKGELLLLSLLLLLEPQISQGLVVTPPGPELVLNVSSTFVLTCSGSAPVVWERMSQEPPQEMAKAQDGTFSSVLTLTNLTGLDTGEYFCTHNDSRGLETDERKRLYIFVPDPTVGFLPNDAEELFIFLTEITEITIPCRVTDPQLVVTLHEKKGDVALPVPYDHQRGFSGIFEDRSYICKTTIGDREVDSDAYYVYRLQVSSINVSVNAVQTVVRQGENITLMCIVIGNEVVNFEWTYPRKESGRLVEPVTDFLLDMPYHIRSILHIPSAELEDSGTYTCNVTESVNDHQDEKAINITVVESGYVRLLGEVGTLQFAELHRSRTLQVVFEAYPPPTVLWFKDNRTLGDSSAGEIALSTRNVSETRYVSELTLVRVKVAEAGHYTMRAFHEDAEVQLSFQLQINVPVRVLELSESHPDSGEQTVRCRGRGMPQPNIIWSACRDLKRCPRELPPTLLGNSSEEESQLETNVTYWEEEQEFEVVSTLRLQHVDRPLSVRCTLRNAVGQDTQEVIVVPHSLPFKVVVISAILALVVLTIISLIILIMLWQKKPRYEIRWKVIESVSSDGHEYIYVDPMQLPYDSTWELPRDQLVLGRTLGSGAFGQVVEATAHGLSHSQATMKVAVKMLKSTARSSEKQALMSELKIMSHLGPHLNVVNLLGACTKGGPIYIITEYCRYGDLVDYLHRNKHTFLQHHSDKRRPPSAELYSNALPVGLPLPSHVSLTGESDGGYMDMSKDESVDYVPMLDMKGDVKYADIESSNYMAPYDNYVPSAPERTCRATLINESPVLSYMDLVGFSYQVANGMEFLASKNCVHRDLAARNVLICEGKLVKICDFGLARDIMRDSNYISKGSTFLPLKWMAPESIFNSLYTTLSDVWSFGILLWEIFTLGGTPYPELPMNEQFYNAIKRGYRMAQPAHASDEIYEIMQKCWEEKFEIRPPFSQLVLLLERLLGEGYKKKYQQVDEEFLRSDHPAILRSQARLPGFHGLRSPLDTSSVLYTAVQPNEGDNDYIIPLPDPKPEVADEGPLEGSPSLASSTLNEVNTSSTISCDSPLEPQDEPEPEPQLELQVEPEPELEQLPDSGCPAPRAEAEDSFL
MAP kinase-activated protein kinase 2, sequence (P49137 whole entry): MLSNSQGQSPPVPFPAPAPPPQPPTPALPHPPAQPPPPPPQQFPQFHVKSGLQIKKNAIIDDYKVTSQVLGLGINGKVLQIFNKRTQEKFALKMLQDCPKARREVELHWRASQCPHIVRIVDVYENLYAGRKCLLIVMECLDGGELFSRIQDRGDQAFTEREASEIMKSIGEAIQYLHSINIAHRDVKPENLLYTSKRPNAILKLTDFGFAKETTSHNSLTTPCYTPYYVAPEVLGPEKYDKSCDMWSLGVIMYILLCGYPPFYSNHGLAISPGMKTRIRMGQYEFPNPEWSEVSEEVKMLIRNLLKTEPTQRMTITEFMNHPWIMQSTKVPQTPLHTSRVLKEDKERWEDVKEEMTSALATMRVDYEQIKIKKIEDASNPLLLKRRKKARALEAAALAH

CNC(=O)c1cccc(NCc2cnc(Nc3ccccn3)s2)c1
IC50 (L2987 [1]): > 2.5 µM

O=C(NCc1ccccn1)c1ccc(F)c(NCc2cnc(Nc3ccccn3)s2)c1
IC50 (HUVEC): 0.053 µM
IC50 (L2987 [1]): > 2.5 µM

O=C(NC1CCCC1)c1ccc(F)c(NCc2cnc(Nc3ccccn3)s2)c1
IC50 (L2987 [1]): > 2.5 µM

O=C(NC1CC1)c1ccc(F)c(CCc2cnc(Nc3ccccn3)s2)c1
IC50 (HUVEC): 0.005 µM
IC50 (L2987 [1]): > 2.5 µM

O=C(NCCN1CCOCC1)c1ccc(F)c(NCc2cnc(Nc3ccccn3)s2)c1
IC50 (L2987 [1]): > 2.5 µM

CNC(=O)c1cc(NCc2cnc(Nc3ccccn3)s2)c(F)cc1F
IC50 (HUVEC): 0.052 µM
IC50 (L2987 [1]): > 2.5 µM

CNC(=O)c1ccc(F)c(NCc2cnc(Nc3ccccn3)s2)c1
IC50 (HUVEC): 0.02 µM
IC50 (L2987 [1]): > 2.5 µM

O=C(NC1CC1)c1cc(NCc2cnc(Nc3ccccn3)s2)c(F)cc1F
IC50 [2]: > 40 µM
IC50 [3]: > 40 µM
IC50 [4]: > 50 µM
IC50 [5]: > 50 µM
IC50 [6]: > 50 µM
IC50 [7]: > 50 µM
IC50 [8]: > 50 µM
Cmax [9]: 148 µM
Tmax [10]: 0.5 h
AUC (Mus musculus): 649 µM·h
half-life [11]: 1.7 h
MRT [12]: 3.4 h
clearance [13]: 11.8 mL/min/kg
Vd [14]: 1.7 L/kg
bioavailability [15]: 100%
Cmax [16]: 44 µM
Tmax [17]: 2 h
AUC (Rattus norvegicus): 202 µM·h
half-life [18]: 2.2 h
MRT [19]: 3.5 h
clearance [20]: 13.6 mL/min/kg
Vd [21]: 1.1 L/kg
bioavailability [22]: 100%
Cmax [23]: 8 µM
Tmax [24]: 0.75 h
AUC (Cynomolgus monkey [25]): 28.5 µM·h
IC50 (HUVEC): 0.025 µM
IC50 (L2987 [1]): > 2.5 µM
IC50 [26]: > 10 µM
IC50 [27]: 0.4 µM
IC50 [28]: 0.2 µM
IC50 [29]: 0.37 µM
IC50 [30]: > 5 µM
IC50 [31]: > 5 µM
IC50 [32]: > 5 µM
IC50 [33]: > 5 µM
IC50 (MAP kinase p38): > 5 µM
IC50 [34]: > 10 µM
IC50 [35]: > 10 µM
IC50 (SRSF protein kinase 1): > 10 µM
IC50 [36]: > 25 µM
IC50 [37]: > 40 µM
IC50 [38]: > 40 µM
inhibition in vivo at 25 mg/kg (HCT-116 [39]): 51%
inhibition in vivo at 50 mg/kg (HCT-116 [40]): 64%
IC50 [41]: 16.6 µM
half-life [42]: 7.1 h
MRT [43]: 7.9 h
bioavailability [44]: 52%
inhibition in vivo at 60 mg/kg (L2987 [45]): 16%
inhibition in vivo at 90 mg/kg (L2987 [46]): 55%
inhibition in vivo at 180 mg/kg (L2987 [47]): 67%
inhibition in vivo at 25 mg/kg (L2987 [48]): 23%
inhibition in vivo at 50 mg/kg (L2987 [49]): 67%
inhibition in vivo at 12.5 mg/kg (HCT-116 [50]): 21%
IC50 [51]: 0.023 µM
IC50 [52]: 0.04 µM
clearance [53]: 3.9 mL/min/kg
Vss (Cynomolgus monkey [54]): 1.6 L/kg

CNC(=O)c1cccc(CSc2cnc(Nc3ccccn3)s2)c1
IC50 (L2987 [1]): > 2.5 µM

O=C(NC1CC1)c1ccc(F)c(NCc2cnc(Nc3ccccn3)s2)c1
IC50 (HUVEC): 0.014 µM
IC50 (L2987 [1]): > 2.5 µM

COc1ccc(C(=O)Nc2ncc(SCc3ncc(C(C)(C)C)o3)s2)cc1OC
IC50 [26]: 0.05 µM
IC50 [51]: 1.9 µM

CONC(=O)c1cccc(CSc2cnc(Nc3ccccn3)s2)c1
IC50 (HUVEC): 0.11 µM
IC50 (L2987 [1]): > 2.5 µM

O=C(NCc1ccccc1)c1ccc(F)c(NCc2cnc(Nc3ccccn3)s2)c1
IC50 (HUVEC): 0.12 µM
IC50 (L2987 [1]): > 2.5 µM
